The assay deals with T1, human NADK (ATP-NAD+ kinase), recombinant, C-terminal 6x-histidine tag (Homo sapiens, UniProt O95544).
T1 construct: 6x-histidine (C); made in house; host or cells: E. coli BL21(DE3)
T1 sequence (O95544 1-446): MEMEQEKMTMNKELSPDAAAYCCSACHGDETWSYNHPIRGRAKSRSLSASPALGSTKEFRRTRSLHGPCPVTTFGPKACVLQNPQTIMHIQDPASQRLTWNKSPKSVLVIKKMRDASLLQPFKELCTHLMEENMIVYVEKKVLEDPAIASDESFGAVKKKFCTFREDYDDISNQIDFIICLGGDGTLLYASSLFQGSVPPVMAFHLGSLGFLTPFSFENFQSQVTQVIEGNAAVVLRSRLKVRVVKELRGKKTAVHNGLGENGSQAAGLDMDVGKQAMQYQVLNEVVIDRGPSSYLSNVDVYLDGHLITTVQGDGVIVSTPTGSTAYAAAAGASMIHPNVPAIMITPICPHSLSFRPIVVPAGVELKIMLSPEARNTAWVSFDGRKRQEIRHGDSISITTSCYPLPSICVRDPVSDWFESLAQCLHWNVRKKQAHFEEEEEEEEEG
Put plainly: Affinity of human NADK for NAD+ compared with pigeon, duck and cat NADK. It counts as biochemical. As to conditions: human NADK relative to pigeon. The procedure: Recombinantly-expressed NADKs were explored for their reversible activities. It was hypothesized that the reversibility of the pigeon enzyme would enable compensation for the high picolinic acid […] (PC) activity present in pigeon livers, which inhibits NAD^+ biosynthesis from dietary tryptophan. […] It was determined that human NADK has an affinity for NAD^+ that is about 600 times higher than the pigeon, duck and cat isoforms. Without wishing to be bound by theory, NAD^+ serves as a product inhibitor for the reverse human NADK activity, which accounts for the observed irreversible behavior. While each of the NADKs explored were “reversible,” the reverse activity of the human enzyme is impeded via product inhibition. […]
Referring now to FIGS. 3A-3B, initial rate kinetic experiments were performed with pigeon, duck, cat, and human NADK enzymes in both the forward and reverse directions. […] In FIG. 3B, the production of ATP was detected in a coupled reaction with firefly luciferase where ATP was converted to light, the relative luminescence (RLU) was monitored, and a standard curve was used to calculate the ATP concentration.

Each structure is given as a SMILES string.

For the molecule `NC(=O)c1ccc[n+]([C@@H]2O[C@H](COP(=O)([O-])OP(=O)(O)OC[C@H]3O[C@@H](n4cnc5c(N)ncnc54)[C@H](O)[C@@H]3O)[C@@H](O)[C@H]2O)c1` [NAD], the “affinity for NAD^+, times higher than the pigeon, duck and cat isoforms” value was “about 600 times”.

The values above are taken from patent publication US20240318218A1 (The Trustees of Columbia University in The City of New York, priority 2023, published 2024).
